Laboratory results as given in US11911361B2, “Stable cannabinoid formulations” (priority 2014, dated 2024).

Assays:
[1] = test system: maximal electroshock-induced seizures; experiment: Maximal electroshock test (MES), mice; conditions: for MES N/F (animals protected/tested): mice
[2] = test system: paclitaxel-induced mechanical sensitivity; experiment: Paclitaxel induced neuropathic pain study (Von Frey mechanical sensitivity); format: in vivo, mice
[3] = test system: minimal muscular or neurological impairment; experiment: Minimal motor impairment toxicity test (TOX), rats; format: in vivo; conditions: Anticonvulsant Screening
[4] = test system: Metrazol-induced clonic seizure; experiment: Subcutaneous Metrazol (sc Met) seizure test; conditions: for Sc MET N/F (animals protected/tested): mice; for ED50: Mus musculus, sc
[5] = test system: oxaliplatin-induced peripheral neuropathy; experiment: Oxaliplatin induced neuropathic pain study; format: in vivo; conditions: CBD 15 minutes prior to single oxaliplatin 6 mg/kg
Protocol: A study was designed to test the efficacy of CBD in preventing oxaliplatin- or vincristine-induced peripheral neuropathy. Two doses of CBD and vehicle were tested against each of these first line chemotherapeutic agents. Oxaliplatin was administered once at a dose of 6 mg/kg. CBD was administered 15 minutes prior to the single oxaliplatin injection. Vincristine was administered once daily for 7 days at a dose of 0.1 mg/kg. CBD was administered 15 minutes prior to each vincristine injection. For each treatment group the final sample size was 8 animals.

[6] = Pharmacokinetic food-effect study, single 20 mg/kg dose, healthy subjects (Example 17); conditions: cannabidiol, single 20 mg/kg oral dose of cannabidiol solution, fasted; mean
Protocol: An open label, randomized, single-dose, two-period, two-way crossover food-effect study was conducted on healthy subjects. […] Twenty-four (24) subjects were enrolled in the study and each were subjected to the fasted and fed treatment arms in separate periods followed by a 7-day wash-out period. For pharmacokinetic analysis, nominal time and default lambda-z selections were used. All below quantifiable limit values were set to zero and all subjects were included in the analysis.
Data from 13 subjects from the fasted treatment and 24 subject from the fed treatment were included in the pharmacokinetic and statistical analyses.

[7] = ED50 Biological Response (Table 59), 120 mg/kg, 2 h, ethanol:polyethoxylated castor oil:PBS

Compound: C=C(C)[C@@H]1CCC(C)=C[C@H]1c1c(O)cc(CCCCC)cc1O [cannabidiol, (−)-trans-2-p-mentha-1,8-dien-3-yl-5-pentylresorcinol]
- MES N/F (animals protected/tested) ([1]; Anticonvulsant Screening, intraperitoneal, 10 mg/kg, 0.5 h, ethanol:polyethoxylated castor oil:PBS): 0/4
- MES N/F (animals protected/tested) ([1]; Anticonvulsant Screening, intraperitoneal, 10 mg/kg, 0.5 h, methylcellulose): 0/4
- MES N/F (animals protected/tested) ([1]; Anticonvulsant Screening, intraperitoneal, 10 mg/kg, 1.0 h, ethanol:polyethoxylated castor oil:PBS): 0/4
- MES N/F (animals protected/tested) ([1]; Anticonvulsant Screening, intraperitoneal, 10 mg/kg, 1.0 h, methylcellulose): 0/4
- MES N/F (animals protected/tested) ([1]; Anticonvulsant Screening, intraperitoneal, 10 mg/kg, 2.0 h, ethanol:polyethoxylated castor oil:PBS): 0/4
- MES N/F (animals protected/tested) ([1]; Anticonvulsant Screening, intraperitoneal, 10 mg/kg, 2.0 h, methylcellulose): 0/4
- MES N/F (animals protected/tested) ([1]; Anticonvulsant Screening, intraperitoneal, 30 mg/kg, 0.5 h, ethanol:polyethoxylated castor oil:PBS): 0/4
- MES N/F (animals protected/tested) ([1]; Anticonvulsant Screening, intraperitoneal, 30 mg/kg, 0.5 h, methylcellulose): 0/4
- MES N/F (animals protected/tested) ([1]; Anticonvulsant Screening, intraperitoneal, 30 mg/kg, 1.0 h, ethanol:polyethoxylated castor oil:PBS): 1/4
- MES N/F (animals protected/tested) ([1]; Anticonvulsant Screening, intraperitoneal, 30 mg/kg, 1.0 h, methylcellulose): 0/4
- MES N/F (animals protected/tested) ([1]; Anticonvulsant Screening, intraperitoneal, 30 mg/kg, 2.0 h, ethanol:polyethoxylated castor oil:PBS): 0/4
- MES N/F (animals protected/tested) ([1]; Anticonvulsant Screening, intraperitoneal, 30 mg/kg, 2.0 h, methylcellulose): 0/4
- MES N/F (animals protected/tested) ([1]; Anticonvulsant Screening, intraperitoneal, 100 mg/kg, 0.5 h, ethanol:polyethoxylated castor oil:PBS): 0/4
- MES N/F (animals protected/tested) ([1]; Anticonvulsant Screening, intraperitoneal, 100 mg/kg, 0.5 h, methylcellulose): 0/4
- MES N/F (animals protected/tested) ([1]; Anticonvulsant Screening, intraperitoneal, 100 mg/kg, 1.0 h, ethanol:polyethoxylated castor oil:PBS): 2/4
- MES N/F (animals protected/tested) ([1]; Anticonvulsant Screening, intraperitoneal, 100 mg/kg, 1.0 h, methylcellulose): 1/4
- MES N/F (animals protected/tested) ([1]; Anticonvulsant Screening, intraperitoneal, 100 mg/kg, 2.0 h, ethanol:polyethoxylated castor oil:PBS): 1/4
- MES N/F (animals protected/tested) ([1]; Anticonvulsant Screening, intraperitoneal, 100 mg/kg, 2.0 h, methylcellulose): 2/4
- MES N/F (animals protected/tested) ([1]; ED50 Biological Response (Table 57), 200 mg/kg, 2 h, methylcellulose): 5/8
- MES N/F (animals protected/tested) ([1]; ED50 Biological Response (Table 57), 250 mg/kg, 2 h, methylcellulose): 4/8
- MES N/F (animals protected/tested) ([1]; ED50 Biological Response (Table 57), 350 mg/kg, 2 h, methylcellulose): 3/8
- MES N/F (animals protected/tested) ([1]; ED50 Biological Response (Table 57), 400 mg/kg, 2 h, methylcellulose): 3/8
- MES N/F (animals protected/tested) ([1]; ED50 Biological Response (Table 57), 450 mg/kg, 2 h, methylcellulose): 6/8
- MES N/F (animals protected/tested) ([1]; ED50 Biological Response (Table 57), 500 mg/kg, 2 h, methylcellulose): 8/8
- MES N/F (animals protected/tested) ([1]; ED50 Biological Response (Table 59), 75 mg/kg, 2 h, ethanol:polyethoxylated castor oil:PBS): 1/8
- MES N/F (animals protected/tested) ([1]; ED50 Biological Response (Table 59), 95 mg/kg, 2 h, ethanol:polyethoxylated castor oil:PBS): 5/8
- MES N/F (animals protected/tested) [1, 7]: 7/8
- MES N/F (animals protected/tested) ([1]; ED50 Biological Response (Table 59), 150 mg/kg, 2 h, ethanol:polyethoxylated castor oil:PBS): 8/8
- ED50 ([1]; Mus musculus): 92.2 mg/kg
- MES N/F (animals protected/tested) ([1]; Tables 57/58, 300 mg/kg, 2 h, methylcellulose): 4/8
- MES N/F (animals protected/tested) ([1]; Time to Peak Effect (Table 58), 300 mg/kg, 0.25 h, methylcellulose): 0/4
- MES N/F (animals protected/tested) ([1]; Time to Peak Effect (Table 58), 300 mg/kg, 0.5 h, methylcellulose): 1/4
- MES N/F (animals protected/tested) ([1]; Time to Peak Effect (Table 58), 300 mg/kg, 1 h, methylcellulose): 1/4
- MES N/F (animals protected/tested) ([1]; Time to Peak Effect (Table 58), 300 mg/kg, 4 h, methylcellulose): 2/4
- ED50 ([1]; methylcellulose solvent): could not be calculated
- animals protected / tested ([1]; methylcellulose solvent, 0.5 hr): ¼
- animals protected / tested ([1]; methylcellulose solvent, 1 hr): ¼
- animals protected / tested ([1]; methylcellulose solvent, 2 hr): 4/8
- animals protected / tested ([1]; methylcellulose solvent, 4 hr): 2/4
- alleviating chemotherapy-induced neuropathic pain (in words) ([2]; Example 7, IP, Day 21): most effective level of alleviating chemotherapy-induced neuropathic pain
- minimal effective dose ([2]; IP): 1.25 mg/kg
- effect on paclitaxel-induced mechanical sensitivity (in words) ([2]; pretreatment 15 minutes prior to each paclitaxel injection, IP): significantly attenuated
- TOX N/F (minimal motor impairment) ([3]; dose 30, 1.0 h, ethanol:polyethoxylated castor oil:PBS): 0/4
- TOX N/F (minimal motor impairment) ([3]; dose 30, 1.0 h, methylcellulose): 0/4
- TOX N/F (minimal motor impairment) ([3]; dose 30, 2.0 h, ethanol:polyethoxylated castor oil:PBS): 0/4
- TOX N/F (minimal motor impairment) ([3]; dose 30, 2.0 h, methylcellulose): 0/4
- TOX N/F (minimal motor impairment) ([3]; dose 30, 4.0 h, ethanol:polyethoxylated castor oil:PBS): 0/4
- TOX N/F (minimal motor impairment) ([3]; dose 30, 4.0 h, methylcellulose): 0/4
- TOX N/F (minimal motor impairment) ([3]; dose 100, 1.0 h, ethanol:polyethoxylated castor oil:PBS): 0/4
- TOX N/F (minimal motor impairment) ([3]; dose 100, 1.0 h, methylcellulose): 0/4
- TOX N/F (minimal motor impairment) ([3]; dose 100, 2.0 h, ethanol:polyethoxylated castor oil:PBS): 0/4
- TOX N/F (minimal motor impairment) ([3]; dose 100, 2.0 h, methylcellulose): 0/4
- TOX N/F (minimal motor impairment) ([3]; dose 100, 4.0 h, ethanol:polyethoxylated castor oil:PBS): 0/4
- TOX N/F (minimal motor impairment) ([3]; dose 100, 4.0 h, methylcellulose): 0/4
- Sc MET N/F (animals protected/tested) ([4]; ED50 Biological Response (Table 57), 150 mg/kg, 2 h, methylcellulose): 1/8
- Sc MET N/F (animals protected/tested) ([4]; ED50 Biological Response (Table 57), 300 mg/kg, 2 h, methylcellulose): 5/8
- Sc MET N/F (animals protected/tested) ([4]; ED50 Biological Response (Table 57), 360 mg/kg, 2 h, methylcellulose): 7/8
- Sc MET N/F (animals protected/tested) [4, 7]: 0/8
- Sc MET N/F (animals protected/tested) ([4]; ED50 Biological Response (Table 59), 160 mg/kg, 2 h, ethanol:polyethoxylated castor oil:PBS): 2/8
- Sc MET N/F (animals protected/tested) ([4]; ED50 Biological Response (Table 59), 220 mg/kg, 2 h, ethanol:polyethoxylated castor oil:PBS): 5/8
- Sc MET N/F (animals protected/tested) ([4]; ED50 Biological Response (Table 59), 260 mg/kg, 2 h, ethanol:polyethoxylated castor oil:PBS): 7/8
- ED50 ([4]; 1:1:18 ethanol:polyethoxlated castor oil:PBS solvent): 199 mg/kg
- ED50 ([4]; methylcellulose solvent): 241 mg/kg
- Sc MET N/F (animals protected/tested) ([4]; Tables 57/58, 200 mg/kg, 2 h, methylcellulose): 3/8
- Sc MET N/F (animals protected/tested) ([4]; Time to Peak Effect (Table 58), 200 mg/kg, 0.25 h, methylcellulose): 0/4
- Sc MET N/F (animals protected/tested) ([4]; Time to Peak Effect (Table 58), 200 mg/kg, 0.5 h, methylcellulose): 0/4
- Sc MET N/F (animals protected/tested) ([4]; Time to Peak Effect (Table 58), 200 mg/kg, 1 h, methylcellulose): 2/8
- effect on oxaliplatin-induced mechanical sensitivity (in words) [5]: attenuated
- AUCextrap [6]: 3.57%
